Structures are written as SMILES.

For orientation: IC50 means the point on the concentration scale where inhibition reaches its midpoint. Low readings indicate higher potency, high ones lower potency.

Chain of FAS (P49327 whole entry): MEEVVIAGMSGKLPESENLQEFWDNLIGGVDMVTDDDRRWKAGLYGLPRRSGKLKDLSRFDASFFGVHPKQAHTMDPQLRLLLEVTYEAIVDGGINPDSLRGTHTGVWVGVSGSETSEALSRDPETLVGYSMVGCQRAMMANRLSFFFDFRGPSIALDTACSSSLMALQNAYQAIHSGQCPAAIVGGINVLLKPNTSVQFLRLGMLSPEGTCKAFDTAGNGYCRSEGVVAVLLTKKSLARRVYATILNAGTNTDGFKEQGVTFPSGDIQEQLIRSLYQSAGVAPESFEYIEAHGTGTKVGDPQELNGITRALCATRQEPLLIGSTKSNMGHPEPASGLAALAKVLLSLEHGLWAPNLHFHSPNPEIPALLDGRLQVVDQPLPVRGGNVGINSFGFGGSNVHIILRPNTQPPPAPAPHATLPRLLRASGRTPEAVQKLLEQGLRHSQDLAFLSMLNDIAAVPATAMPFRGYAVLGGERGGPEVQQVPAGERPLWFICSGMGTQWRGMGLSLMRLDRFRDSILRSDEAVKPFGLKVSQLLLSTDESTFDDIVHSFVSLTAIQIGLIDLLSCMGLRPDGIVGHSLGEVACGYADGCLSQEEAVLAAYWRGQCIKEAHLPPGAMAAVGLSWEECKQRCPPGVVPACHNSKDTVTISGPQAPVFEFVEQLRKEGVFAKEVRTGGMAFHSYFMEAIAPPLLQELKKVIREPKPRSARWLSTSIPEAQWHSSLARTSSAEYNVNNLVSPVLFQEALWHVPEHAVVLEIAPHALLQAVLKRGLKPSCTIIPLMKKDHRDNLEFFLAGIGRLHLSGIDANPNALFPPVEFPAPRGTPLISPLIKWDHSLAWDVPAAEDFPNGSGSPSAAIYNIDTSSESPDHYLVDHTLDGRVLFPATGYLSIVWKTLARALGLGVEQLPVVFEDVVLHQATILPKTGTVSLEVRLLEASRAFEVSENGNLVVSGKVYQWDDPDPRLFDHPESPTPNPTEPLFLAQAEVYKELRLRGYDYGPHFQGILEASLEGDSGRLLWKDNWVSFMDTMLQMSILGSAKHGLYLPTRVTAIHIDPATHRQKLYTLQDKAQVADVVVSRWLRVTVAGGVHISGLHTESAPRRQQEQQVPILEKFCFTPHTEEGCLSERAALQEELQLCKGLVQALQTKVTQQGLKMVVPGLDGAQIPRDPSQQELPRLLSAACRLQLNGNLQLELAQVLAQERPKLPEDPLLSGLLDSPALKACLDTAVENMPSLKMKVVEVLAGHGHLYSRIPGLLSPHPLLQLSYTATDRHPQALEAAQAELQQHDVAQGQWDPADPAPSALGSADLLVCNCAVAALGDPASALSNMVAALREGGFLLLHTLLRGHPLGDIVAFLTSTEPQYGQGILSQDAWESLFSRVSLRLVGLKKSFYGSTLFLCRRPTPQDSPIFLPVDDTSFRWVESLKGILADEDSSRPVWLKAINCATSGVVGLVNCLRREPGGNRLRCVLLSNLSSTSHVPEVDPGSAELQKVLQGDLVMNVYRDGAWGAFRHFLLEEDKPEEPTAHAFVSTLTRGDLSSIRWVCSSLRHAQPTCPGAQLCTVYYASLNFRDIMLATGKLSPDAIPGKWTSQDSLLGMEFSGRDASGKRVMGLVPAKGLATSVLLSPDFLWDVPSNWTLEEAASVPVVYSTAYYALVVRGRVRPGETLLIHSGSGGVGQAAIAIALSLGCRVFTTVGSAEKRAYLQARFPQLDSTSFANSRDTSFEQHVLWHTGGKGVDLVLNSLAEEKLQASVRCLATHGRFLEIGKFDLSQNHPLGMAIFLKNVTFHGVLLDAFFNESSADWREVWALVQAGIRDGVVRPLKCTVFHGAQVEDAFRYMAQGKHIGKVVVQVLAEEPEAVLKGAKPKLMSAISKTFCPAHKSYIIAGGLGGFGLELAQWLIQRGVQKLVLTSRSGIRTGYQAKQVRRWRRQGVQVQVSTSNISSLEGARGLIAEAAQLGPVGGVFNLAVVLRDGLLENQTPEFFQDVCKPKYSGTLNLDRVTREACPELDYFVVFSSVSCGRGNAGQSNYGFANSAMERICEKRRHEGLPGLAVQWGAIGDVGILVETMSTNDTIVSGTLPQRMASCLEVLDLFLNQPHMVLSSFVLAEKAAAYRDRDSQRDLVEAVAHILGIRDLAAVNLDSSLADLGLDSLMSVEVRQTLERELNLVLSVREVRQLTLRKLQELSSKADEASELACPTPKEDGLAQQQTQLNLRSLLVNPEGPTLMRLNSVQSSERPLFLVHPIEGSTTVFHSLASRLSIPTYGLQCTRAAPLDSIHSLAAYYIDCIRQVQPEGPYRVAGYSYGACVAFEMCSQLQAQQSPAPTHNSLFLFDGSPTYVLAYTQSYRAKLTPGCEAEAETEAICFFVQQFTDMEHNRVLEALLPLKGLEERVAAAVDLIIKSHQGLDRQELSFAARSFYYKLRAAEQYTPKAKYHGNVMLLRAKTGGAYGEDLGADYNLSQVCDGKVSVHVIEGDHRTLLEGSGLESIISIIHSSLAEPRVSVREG

The assay addresses FAS (Homo sapiens, UniProt P49327). As to the kind of experiment: FAS assay (Assay #1 residual NADPH detection or Assay #2 CoA detection with CPM dye). The assay is classed as biochemical. The note with it: inhibition of FAS; measured by one of two assays; one experiment or average of multiple experiments. On the procedure: FAS activity was measured through one of the two following assays.
Inhibition of FAS activity can be measured based on the detection of residual NADPH substrate after the FAS assay is quenched. This assay is run as a 10 μL endpoint assay in 384-well format, where the reaction contains 20 μM malonyl-CoA, 2 μM acetyl-CoA, 30 μM NADPH and 40 nM FAS in 50 mM sodium phosphate, pH 7.0. The assay is run by sequentially dispensing 5 μl of a malonyl-CoA solution, then enzyme solution (containing the acetyl-CoA, and NADPH) into a black, low volume assay plate (Greiner 784076) pre-dispensed with 100 nL compound solutions in DMSO. The reaction is incubated at ambient temperature for 60 minutes, then quenched with 5 μL of a developing solution composed of 90 μM resazurin, 0.3 IU/ml diaphorase in 50 mM sodium phosphate, pH 7.0. The developed reaction is read on a Molecular Devices Analyst or Acquest (or equivalent) plate reader using a 530 nm excitation wavelength filter, a 580 nm emission filter, and 561 nm dichroic filter. The test compounds are prepared in neat DMSO at a concentration of 10 mM. For inhibition curves, compounds are diluted using a three fold serial dilution and tested at 11 concentrations (e.g. 25 μM-0.42 nM). Curves are analysed using ActivityBase and XLfit, and results are expressed as pIC50 values.
Inhibition of FAS can also be quantified based on the detection of the CoA products with a thio-reactive coumarin dye. This assay is run as a 10 μL endpoint assay in 384-well format, where the reaction contains 20 μM malonyl-CoA, 20 μM acetyl-CoA, 40 μM NADPH and 2 nM FAS in 50 mM sodium phosphate, pH 7.0, and 0.04% Tween-20. The assay is run by adding 5 μL enzyme solution to a black, low volume assay plate (Greiner 784076) pre-dispensed with 100 nl compound solutions in DMSO. After 30 minutes, 5 μL substrate is added, and the reaction incubated at ambient temperature for an additional 60 minutes. The reaction is then quenched with 10 μL of 6M guanidine-HCl containing 50 μM CPM (7-diethylamino-3-(4′-maleimidylphenyl)-4-methylcoumarin (CPM; thio-reactive dye), and incubated for 30 minutes. The plate is read on an Envision (PerkinElmer) or equivalent plate reader using a 380 nm excitation wavelength filter, and a 486 nm emission filter. Data fitting and compound preparations are done as described above.
Turning to `Cn1nc(-c2ccc(-c3ccc4occc4c3)c(F)c2)n(C[C@@H]2CCN(C(=O)C3CC3)C2)c1=O` [Example 2, 5-[4-(1-benzofuran-5-yl)-3-fluorophenyl]-4-{[(3R)-1-(cyclopropylcarbonyl)-3-pyrrolidinyl]methyl}-2-methyl-2,4-dihydro-3H-1,2,4-triazol-3-one], the half-inhibitory concentration (IC50) is 158 nM.
For `O=C(C1CC1)N1CC[C@@H](Cn2c(-c3ccc(-c4ccc5cc[nH]c5c4)c(F)c3)n[nH]c2=O)C1` [Example 4, 4-{[(3R)-1-(cyclopropylcarbonyl)-3-pyrrolidinyl]methyl}-5-[3-fluoro-4-(1H-indol-6-yl)phenyl]-2,4-dihydro-3H-1,2,4-triazol-3-one] the value was 25 nM; for `O=C(C1CC1)N1CC[C@@H](Cn2c(-c3ccc(-c4ccc(F)cc4)cc3Cl)n[nH]c2=O)C1` [Example 20, 5-(3-chloro-4′-fluoro-4-biphenylyl)-4-{[(3R)-1-(cyclopropylcarbonyl)-3-pyrrolidinyl]methyl}-2,4-dihydro-3H-1,2,4-triazol-3-one], 40 nM.
In the case of `O=C(C1CC1)N1CC[C@@H](Cn2c(-c3ccc(-c4ccc5cc[nH]c5c4)cc3)n[nH]c2=O)C1` [Example 21, 4-{[(3R)-1-(cyclopropylcarbonyl)-3-pyrrolidinyl]methyl}-5-[4-(1H-indol-6-yl)phenyl]-2,4-dihydro-3H-1,2,4-triazol-3-one], the IC50 was 4 nM.
For `COc1ccc(-c2ccc(-c3nn(C)c(=O)n3C[C@@H]3CCN(C(=O)C4CC4)C3)cc2)c(Cl)c1` [Example 35, 5-[2′-chloro-4′-(methyloxy)-4-biphenylyl]-4-{[(3R)-1-(cyclopropylcarbonyl)-3-pyrrolidinyl]methyl}-2-methyl-2,4-dihydro-3H-1,2,4-triazol-3-one] the value was 79 nM.
The same measure for `O=C(C1CC1)N1CC[C@@H](Cn2c(-c3ccc(-c4ccc(F)cc4)cc3)nn(Cc3ccccc3)c2=O)C1` [Example 42, 4-{[(3R)-1-(cyclopropylcarbonyl)-3-pyrrolidinyl]methyl}-5-(4′-fluoro-4-biphenylyl)-2-(phenylmethyl)-2,4-dihydro-3H-1,2,4-triazol-3-one]: 263 nM.
For `O=C(C1CC1)N1CC[C@@H](Cn2c(-c3ccc(-c4ccc(Cl)cc4)cc3F)n[nH]c2=O)C1` [Example 47, 5-(4′-chloro-3-fluoro-4-biphenylyl)-4-{[(3R)-1-(cyclopropylcarbonyl)-3-pyrrolidinyl]methyl}-2,4-dihydro-3H-1,2,4-triazol-3-one] the value was 16 nM; for `CN(C)S(=O)(=O)Nc1cccc(-c2ccc(-c3n[nH]c(=O)n3C[C@@H]3CCN(C(=O)C4CC4)C3)cc2)c1` [Example 49, N′-[4′-(4-{[(3R)-1-(cyclopropylcarbonyl)-3-pyrrolidinyl]methyl}-5-oxo-4,5-dihydro-1H-1,2,4-triazol-3-yl)-3-biphenylyl]-N,N-dimethylsulfamide], 40 nM; for `O=C(C1CC1)N1CC[C@@H](Cn2c(-c3ccc(-c4ccc(F)nc4)cc3)n[nH]c2=O)C1` [Example 58, 4-{[(3R)-1-(cyclopropylcarbonyl)-3-pyrrolidinyl]methyl}-5-[4-(6-fluoro-3-pyridinyl)phenyl]-2,4-dihydro-3H-1,2,4-triazol-3-one], 2000 nM.
Take `N#Cc1ccc(-c2ccc(-c3n[nH]c(=O)n3C[C@@H]3CCN(C(=O)C4CC4)C3)cc2)cc1` [Example 66, 4′-(4-{[(3R)-1-(cyclopropylcarbonyl)-3-pyrrolidinyl]methyl}-5-oxo-4,5-dihydro-1H-1,2,4-triazol-3-yl)-4-biphenylcarbonitrile]: the IC50 is 79 nM.
For `O=C(C1CC1)N1CC[C@@H](Cn2c(-c3ccc(-c4cccc5ncccc45)cc3)n[nH]c2=O)C1` [Example 71, 4-{[(3R)-1-(cyclopropylcarbonyl)-3-pyrrolidinyl]methyl}-5-[4-(5-quinolinyl)phenyl]-2,4-dihydro-3H-1,2,4-triazol-3-one], half-maximal inhibition (IC50) was put at 20 nM.
Molecule `O=C(C1CC1)N1CC[C@@H](Cn2c(-c3ccc(-c4cn5ccccc5n4)cc3)n[nH]c2=O)C1` [Example 78, 4-{[(3R)-1-(cyclopropylcarbonyl)-3-pyrrolidinyl]methyl}-5-(4-imidazo[1,2-a]pyridin-2-ylphenyl)-2,4-dihydro-3H-1,2,4-triazol-3-one] gave an IC50 of 398 nM.
The same measure for `O=C(C1CC1)N1CC[C@@H](Cn2c(-c3ccc(-c4ccn5ccnc5c4)cc3)n[nH]c2=O)C1` [Example 79, 4-{[(3R)-1-(cyclopropylcarbonyl)-3-pyrrolidinyl]methyl}-5-(4-imidazo[1,2-a]pyridin-7-ylphenyl)-2,4-dihydro-3H-1,2,4-triazol-3-one]: 100 nM.
The same measure for `CC(C)C(=O)N1CC[C@@H](Cn2c(-c3ccc(-c4ccc5occc5c4)cc3)n[nH]c2=O)C1` [Example 91, 5-[4-(1-benzofuran-5-yl)phenyl]-4-{[(3R)-1-(2-methylpropanoyl)-3-pyrrolidinyl]methyl}-2,4-dihydro-3H-1,2,4-triazol-3-one]: 16 nM; for `CN(C)C(=O)N1CC[C@@H](Cn2c(-c3ccc(-c4ccc5occc5c4)cc3)n[nH]c2=O)C1` [Example 92, (3R)-3-({3-[4-(1-benzofuran-5-yl)phenyl]-5-oxo-1,5-dihydro-4H-1,2,4-triazol-4-yl}methyl)-N,N-dimethyl-1-pyrrolidinecarboxamide]: 25 nM.
The same measure for `CC1(C(=O)N2CC[C@@H](Cn3c(-c4ccc(-c5ccc6occc6c5)cc4)n[nH]c3=O)C2)CC1` [Example 97, 5-[4-(1-benzofuran-5-yl)phenyl]-4-({(3R)-1-[(1-methylcyclopropyl)carbonyl]-3-pyrrolidinyl}methyl)-2,4-dihydro-3H-1,2,4-triazol-3-one]: 4 nM.
For `NC(=O)Nc1cccc(-c2ccc(-c3n[nH]c(=O)n3C[C@@H]3CCN(C(=O)C4CC4)C3)cc2)c1` [Example 103, N-[4′-(4-{[(3R)-1-(cyclopropylcarbonyl)-3-pyrrolidinyl]methyl}-5-oxo-4,5-dihydro-1H-1,2,4-triazol-3-yl)-3-biphenylyl]urea], the IC50 stood at 316 nM.
The same measure for `O=C(C1CC1)N1CC[C@@H](Cn2c(-c3ccc(-c4ccc(Cl)cc4F)cc3)n[nH]c2=O)C1` [Example 105]: 50 nM.
Turning to `COc1ccc(-c2ccc(-c3n[nH]c(=S)n3C[C@@H]3CCN(C(=O)C4CC4)C3)cc2)c(Cl)c1` [Example 107, 5-[2′-chloro-4′-(methyloxy)-4-biphenylyl]-4-{[(3R)-1-(cyclopropylcarbonyl)-3-pyrrolidinyl]methyl}-2,4-dihydro-3H-1,2,4-triazole-3-thione], the midpoint of inhibition, the IC50, lay at 72 nM.

These data come from patent US20130172384A1, “FATTY ACID SYNTHASE INHIBITORS” (GlaxoSmithKline Intellectual Property Development Limited, priority 2010, published 2013).
